These results are taken from ChEMBL document CHEMBL5506005, “Biochemical and structural characterization of chlorhexidine as an ATP-assisted inhibitor against type 1 methionyl-tRNA synthetase from Gram-positive bacteria” (Eur J Med Chem, 2024).

pIC50, pKd: −log10 of the molar value. Bounds are passed on as bounds.

In test [1] the target is T1, Methionine--tRNA ligase (Staphylococcus aureus (strain Mu50 / ATCC 700699), UniProt P67578). Put plainly: Binding affinity to Staphylococcus aureus MetRS expressed in Escherichia coli BL21(DE3) cells assessed as dissociation constant in presence of 1 mM ATP by ITC analysis. A general note: Isothermal titration calorimetry measures the heat released or taken up as one component is titrated into another.
T1 sequence (P67578 whole entry): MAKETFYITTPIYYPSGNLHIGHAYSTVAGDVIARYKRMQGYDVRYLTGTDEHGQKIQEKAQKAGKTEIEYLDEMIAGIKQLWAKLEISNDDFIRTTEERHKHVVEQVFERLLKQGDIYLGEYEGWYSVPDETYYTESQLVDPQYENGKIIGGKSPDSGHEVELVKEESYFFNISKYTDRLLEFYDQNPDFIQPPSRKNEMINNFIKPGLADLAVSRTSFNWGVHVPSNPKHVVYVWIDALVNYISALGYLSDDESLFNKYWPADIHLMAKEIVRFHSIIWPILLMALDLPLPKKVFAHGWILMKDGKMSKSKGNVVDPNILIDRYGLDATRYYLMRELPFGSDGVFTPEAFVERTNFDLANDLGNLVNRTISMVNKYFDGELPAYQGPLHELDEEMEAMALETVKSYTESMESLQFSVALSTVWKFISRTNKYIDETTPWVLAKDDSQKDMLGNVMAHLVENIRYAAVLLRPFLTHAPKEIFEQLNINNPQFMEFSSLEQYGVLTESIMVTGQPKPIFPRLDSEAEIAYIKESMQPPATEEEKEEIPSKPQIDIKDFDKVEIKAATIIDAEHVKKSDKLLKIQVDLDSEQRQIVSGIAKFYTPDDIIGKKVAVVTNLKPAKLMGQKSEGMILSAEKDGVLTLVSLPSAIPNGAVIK

The target of test [2] is T1, Methionine--tRNA ligase. The test is described as follows: Inhibition of Staphylococcus aureus MetRS expressed in Escherichia coli BL21(DE3) cells measured after 2.5 hrs in presence of ATP by pre-transfer editing assay.
In test [3] the target is T1, Methionine--tRNA ligase. The test is described as follows: Binding affinity to Staphylococcus aureus MetRS expressed in Escherichia coli BL21(DE3) cells assessed as dissociation constant in presence of ATP/L-Met by ITC analysis.
For test [4], the target named is T2, Methionine--tRNA ligase (Enterococcus faecalis, UniProt A0A3N3ZFK4). The test is described as follows: Inhibition of Enterococcus faecalis type 1 MetRS expressed in Escherichia coli BL21(DE3) cells measured after 1.5 hrs in presence of ATP by pre-transfer editing assay.
T2 sequence (A0A3N3ZFK4 whole entry): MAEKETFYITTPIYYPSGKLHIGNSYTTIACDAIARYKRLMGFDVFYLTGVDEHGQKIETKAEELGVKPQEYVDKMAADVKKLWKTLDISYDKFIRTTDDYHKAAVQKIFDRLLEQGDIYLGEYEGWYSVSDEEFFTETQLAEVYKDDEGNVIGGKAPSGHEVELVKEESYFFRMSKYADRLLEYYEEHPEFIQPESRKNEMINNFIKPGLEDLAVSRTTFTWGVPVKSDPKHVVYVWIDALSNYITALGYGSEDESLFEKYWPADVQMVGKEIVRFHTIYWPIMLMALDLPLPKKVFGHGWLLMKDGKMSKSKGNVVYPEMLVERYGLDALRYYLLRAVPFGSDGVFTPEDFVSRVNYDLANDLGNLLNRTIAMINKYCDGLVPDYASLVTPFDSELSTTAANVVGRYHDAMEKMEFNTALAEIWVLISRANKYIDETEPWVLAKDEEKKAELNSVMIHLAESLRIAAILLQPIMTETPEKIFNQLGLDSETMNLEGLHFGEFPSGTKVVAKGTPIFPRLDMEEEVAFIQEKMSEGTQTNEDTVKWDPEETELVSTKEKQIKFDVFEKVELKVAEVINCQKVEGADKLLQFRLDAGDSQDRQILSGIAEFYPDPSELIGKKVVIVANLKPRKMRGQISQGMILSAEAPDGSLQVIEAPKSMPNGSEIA
Test [5] addresses T2, Methionine--tRNA ligase. Put plainly: Binding affinity to Enterococcus faecalis type 1 MetRS expressed in Escherichia coli BL21(DE3) cells assessed as dissociation constant in presence of 1 mM ATP by ITC analysis.
Test [6] has as its target T2, Methionine--tRNA ligase. The test is described as follows: Binding affinity to Enterococcus faecalis type 1 MetRS expressed in Escherichia coli BL21(DE3) cells assessed as dissociation constant by ITC analysis.
The target in test [7] is T1, Methionine--tRNA ligase. The test is described as follows: Binding affinity to Staphylococcus aureus MetRS expressed in Escherichia coli BL21(DE3) cells assessed as dissociation constant by ITC analysis.
Test [8] concerns the target T1, Methionine--tRNA ligase. Put plainly: Binding affinity to Staphylococcus aureus MetRS expressed in Escherichia coli BL21(DE3) cells assessed as dissociation constant in presence of 20 uM ATP by ITC analysis.
Test [9] has as its target T1, Methionine--tRNA ligase. Put plainly: Binding affinity to Staphylococcus aureus MetRS expressed in Escherichia coli BL21(DE3) cells assessed as dissociation constant in presence of 50 uM ATP by ITC analysis.
For test [10], the target named is T1, Methionine--tRNA ligase. Put plainly: Binding affinity to Staphylococcus aureus MetRS expressed in Escherichia coli BL21(DE3) cells assessed as dissociation constant in presence of 500 uM ATP by ITC analysis.
Test [11] addresses T1, Methionine--tRNA ligase. Put plainly: Binding affinity to Staphylococcus aureus MetRS expressed in Escherichia coli BL21(DE3) cells assessed as dissociation constant in presence of 1 mM ADP by ITC analysis.
Test [12] addresses T1, Methionine--tRNA ligase. Put plainly: Binding affinity to Staphylococcus aureus MetRS expressed in Escherichia coli BL21(DE3) cells assessed as dissociation constant in presence of 1 mM AMP by ITC analysis.
The target in test [13] is Methionine--tRNA ligase (Staphylococcus aureus (strain Mu50 / ATCC 700699)) (UniProt P67578). Put plainly: Binding affinity to Staphylococcus aureus MetRS expressed in Escherichia coli BL21(DE3) cells assessed as change in melting temperature at 100 uM incubated for 10 mins followed by heat treatment by SYPRO orange dye based TSA (reference value: 53.7 degreeC).
Chain of Methionine--tRNA ligase (Staphylococcus aureus (strain Mu50 / ATCC 700699)) (P67578 whole entry): as the sequence (P67578 whole entry) above
The target is the same in test [14]. The test is described as follows: Binding affinity to Staphylococcus aureus MetRS expressed in Escherichia coli BL21(DE3) cells assessed as change in melting temperature at 100 uM incubated for 10 mins followed by heat treatment in presence of 2 mM ATP by SYPRO orange dye based TSA (reference value: 56.4 degreeC).
For test [15] the target is unchanged. The test is described as follows: Inhibition of Staphylococcus aureus MetRS expressed in Escherichia coli BL21(DE3) cells at 100 uM measured after 2.5 hrs in presence of ATP by pre-transfer editing assay relative to control.

On to `[H]/N=C(\N/C(=N/[H])NCCCCCCNC(=N)NC(=N)Nc1ccc(Cl)cc1)Nc1ccc(Cl)cc1` [CHLORHEXIDINE], for which the pKd in test [1] is 6.35; in [3], 5.38; in [5], 6.52; in test [6], 5.30; in test [7], 4.99; in test [8] it was 5.51. Moreover, the pKd in test [9] is 5.92; in test [10], 6.23; in [11] it was 5.72; in [12], 8.22. The pIC50 was 4.51 in [2] and 5.07 in test [4].
As for VITAMIN E, the ΔTm in test [13] is 1.2 °C; in [14] it was 1 °C. Also, the inhibition in test [15] is under 20%.

The pKd is the Kd on a negative log10 scale, so that one unit is a factor of ten. One may read the pIC50 as the negative decadic logarithm of the IC50, by convention in mol/L. Usually ΔTm stands for the shift of the melting midpoint relative to a reference. The inhibition is the change of the read-out against control, counted positive when it falls.
